What was measured:
[1] = target: Mitogen-activated protein kinase kinase kinase 6 (Homo sapiens) (UniProt O95382); settings: Compound concentration 1000.0 nM
[2] = target: Serine/threonine-protein kinase PknB (Mycobacterium tuberculosis) (UniProt P9WI81); settings: Compound concentration 1000.0 nM
[3] = target: Serine/threonine-protein kinase pim-2 (Homo sapiens) (UniProt Q9P1W9); settings: Compound concentration 1000.0 nM
[4] = target: Insulin-like growth factor 1 receptor (Homo sapiens) (UniProt P08069); settings: Compound concentration 1000.0 nM
[5] = target: Tyrosine-protein kinase Fgr (Homo sapiens) (UniProt P09769); settings: Compound concentration 1000.0 nM
[6] = target: Mitogen-activated protein kinase kinase kinase 4 (Homo sapiens) (UniProt Q9Y6R4); settings: Compound concentration 1000.0 nM
[7] = target: Activin receptor type-1-like (Homo sapiens) (UniProt P37023); settings: Compound concentration 1000.0 nM
[8] = target: Serine/threonine-protein kinase Nek1 (Homo sapiens) (UniProt Q96PY6); settings: Compound concentration 1000.0 nM
[9] = target: Death-associated protein kinase 2 (Homo sapiens) (UniProt Q9UIK4); settings: Compound concentration 1000.0 nM
[10] = target: RAC-beta serine/threonine-protein kinase (Homo sapiens) (UniProt P31751); settings: Compound concentration 1000.0 nM
[11] = target: Serine/threonine-protein kinase Chk1 (Homo sapiens) (UniProt O14757); settings: Compound concentration 1000.0 nM
[12] = target: Protein kinase C iota type (Homo sapiens) (UniProt P41743); settings: Compound concentration 1000.0 nM
[13] = target: Phosphatidylinositol 5-phosphate 4-kinase type-2 gamma (Homo sapiens) (UniProt Q8TBX8); settings: Compound concentration 1000.0 nM
[14] = target: Vascular endothelial growth factor receptor 2 (Homo sapiens) (UniProt P35968); settings: Compound concentration 1000.0 nM
[15] = target: D(1A) dopamine receptor (Homo sapiens) (UniProt P21728); settings: Compound concentration 10.0 uM
[16] = target: T1, D(4) dopamine receptor (Homo sapiens) (UniProt P21917); settings: Compound concentration 10.0 uM
T1 sequence (whole entry): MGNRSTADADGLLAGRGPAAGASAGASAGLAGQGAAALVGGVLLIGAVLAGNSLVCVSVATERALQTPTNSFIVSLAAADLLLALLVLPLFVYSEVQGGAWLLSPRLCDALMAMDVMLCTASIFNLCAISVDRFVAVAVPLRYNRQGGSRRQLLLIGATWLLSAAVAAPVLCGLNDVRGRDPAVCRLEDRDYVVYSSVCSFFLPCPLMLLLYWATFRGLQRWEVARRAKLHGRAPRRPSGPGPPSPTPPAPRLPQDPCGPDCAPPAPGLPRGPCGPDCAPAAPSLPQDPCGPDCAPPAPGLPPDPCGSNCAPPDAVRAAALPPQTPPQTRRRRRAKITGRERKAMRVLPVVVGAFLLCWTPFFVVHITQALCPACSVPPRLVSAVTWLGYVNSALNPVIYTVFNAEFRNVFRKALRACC

[17] = target: Ribosomal protein S6 kinase alpha-5 (Homo sapiens) (UniProt O75582); settings: Compound concentration 1000.0 nM
[18] = target: Calcium/calmodulin-dependent protein kinase type IV (Homo sapiens) (UniProt Q16566); settings: Compound concentration 1000.0 nM
[19] = target: Glycogen synthase kinase-3 beta (Homo sapiens) (UniProt P49841); settings: Compound concentration 1000.0 nM
[20] = target: Mitogen-activated protein kinase kinase kinase 13 (Homo sapiens) (UniProt O43283); settings: Compound concentration 1000.0 nM
[21] = target: Serine/threonine-protein kinase ULK1 (Homo sapiens) (UniProt O75385); settings: Compound concentration 1000.0 nM
[22] = target: Aurora kinase B (Homo sapiens) (UniProt Q96GD4); settings: Compound concentration 1000.0 nM
[23] = target: TGF-beta receptor type-2 (Homo sapiens) (UniProt P37173); settings: Compound concentration 1000.0 nM
[24] = target: Sodium-dependent serotonin transporter (Homo sapiens) (UniProt P31645); settings: Compound concentration 10.0 uM
[25] = target: Mitogen-activated protein kinase kinase kinase 19 (Homo sapiens) (UniProt Q56UN5); settings: Compound concentration 1000.0 nM
[26] = system: Phosphatidylinositol 4,5-bisphosphate 3-kinase catalytic subunit alpha isoform (Homo sapiens), P42336 [H1047Y]; settings: Compound concentration 1000.0 nM
[27] = target: Cyclin-dependent kinase 11A (Homo sapiens) (UniProt Q9UQ88); settings: Compound concentration 1000.0 nM
[28] = target: Serine/threonine-protein kinase PLK4 (Homo sapiens) (UniProt O00444); settings: Compound concentration 1000.0 nM
[29] = target: SRSF protein kinase 2 (Homo sapiens) (UniProt P78362); settings: Compound concentration 1000.0 nM
[30] = target: Serine/threonine-protein kinase haspin (Homo sapiens) (UniProt Q8TF76); settings: Compound concentration 1000.0 nM
[31] = system: Proto-oncogene tyrosine-protein kinase receptor Ret (Homo sapiens), P07949 [V804M]; settings: Compound concentration 1000.0 nM
[32] = target: Serine/threonine-protein kinase Nek11 (Homo sapiens) (UniProt Q8NG66); settings: Compound concentration 1000.0 nM
[33] = system: Receptor-type tyrosine-protein kinase FLT3 (Homo sapiens), P36888 [D835V]; settings: Compound concentration 1000.0 nM
[34] = system: Epidermal growth factor receptor (Homo sapiens), P00533 [L861Q]; settings: Compound concentration 1000.0 nM
[35] = target: 3-phosphoinositide-dependent protein kinase 1 (Homo sapiens) (UniProt O15530); settings: Compound concentration 1000.0 nM
[36] = target: MAP kinase-activated protein kinase 5 (Homo sapiens) (UniProt Q8IW41); settings: Compound concentration 1000.0 nM
[37] = target: Mitogen-activated protein kinase kinase kinase kinase 4 (Homo sapiens) (UniProt O95819); settings: Compound concentration 1000.0 nM
[38] = target: Serine/threonine-protein kinase NIM1 (Homo sapiens) (UniProt Q8IY84); settings: Compound concentration 1000.0 nM
[39] = target: Serine/threonine-protein kinase Nek7 (Homo sapiens) (UniProt Q8TDX7); settings: Compound concentration 1000.0 nM
[40] = target: Ribosomal protein S6 kinase beta-1 (Homo sapiens) (UniProt P23443); settings: Compound concentration 1000.0 nM

Chain of Serine/threonine-protein kinase PLK4 (Homo sapiens) (O00444 whole entry): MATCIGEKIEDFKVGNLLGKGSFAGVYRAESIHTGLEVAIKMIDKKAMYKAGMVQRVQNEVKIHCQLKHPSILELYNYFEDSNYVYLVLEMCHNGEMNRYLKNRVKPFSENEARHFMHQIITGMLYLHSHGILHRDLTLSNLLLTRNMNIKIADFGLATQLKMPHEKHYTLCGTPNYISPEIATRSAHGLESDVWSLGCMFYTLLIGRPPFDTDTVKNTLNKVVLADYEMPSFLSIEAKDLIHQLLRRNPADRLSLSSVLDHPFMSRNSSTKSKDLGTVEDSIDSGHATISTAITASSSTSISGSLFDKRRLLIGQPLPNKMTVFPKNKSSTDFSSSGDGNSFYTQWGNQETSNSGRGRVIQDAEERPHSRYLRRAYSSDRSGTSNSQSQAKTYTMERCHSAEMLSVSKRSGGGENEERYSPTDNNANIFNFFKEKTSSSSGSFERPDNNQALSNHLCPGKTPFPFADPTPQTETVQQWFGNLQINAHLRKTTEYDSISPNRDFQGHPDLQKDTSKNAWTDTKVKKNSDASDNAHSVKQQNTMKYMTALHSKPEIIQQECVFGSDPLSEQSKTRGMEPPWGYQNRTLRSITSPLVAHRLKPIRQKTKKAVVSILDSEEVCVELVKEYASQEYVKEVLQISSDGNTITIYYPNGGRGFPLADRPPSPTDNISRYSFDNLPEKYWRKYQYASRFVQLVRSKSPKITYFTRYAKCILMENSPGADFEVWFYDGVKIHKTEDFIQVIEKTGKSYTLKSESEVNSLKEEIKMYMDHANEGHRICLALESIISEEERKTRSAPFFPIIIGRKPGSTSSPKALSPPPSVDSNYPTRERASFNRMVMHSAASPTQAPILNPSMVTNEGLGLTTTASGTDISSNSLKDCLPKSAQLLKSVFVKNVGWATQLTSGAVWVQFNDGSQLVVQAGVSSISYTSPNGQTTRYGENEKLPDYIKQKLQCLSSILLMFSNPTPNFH
Chain of Serine/threonine-protein kinase Nek7 (Homo sapiens) (Q8TDX7 whole entry, looked up): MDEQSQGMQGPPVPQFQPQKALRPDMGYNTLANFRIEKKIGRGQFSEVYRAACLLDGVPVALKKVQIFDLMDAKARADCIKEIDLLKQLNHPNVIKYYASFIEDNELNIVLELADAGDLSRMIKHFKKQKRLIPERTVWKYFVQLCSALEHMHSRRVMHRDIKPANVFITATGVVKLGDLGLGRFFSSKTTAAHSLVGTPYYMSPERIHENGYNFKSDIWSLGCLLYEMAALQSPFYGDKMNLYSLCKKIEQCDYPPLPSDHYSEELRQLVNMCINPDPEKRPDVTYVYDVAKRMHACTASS
Chain of Death-associated protein kinase 2 (Homo sapiens) (Q9UIK4 whole entry, looked up): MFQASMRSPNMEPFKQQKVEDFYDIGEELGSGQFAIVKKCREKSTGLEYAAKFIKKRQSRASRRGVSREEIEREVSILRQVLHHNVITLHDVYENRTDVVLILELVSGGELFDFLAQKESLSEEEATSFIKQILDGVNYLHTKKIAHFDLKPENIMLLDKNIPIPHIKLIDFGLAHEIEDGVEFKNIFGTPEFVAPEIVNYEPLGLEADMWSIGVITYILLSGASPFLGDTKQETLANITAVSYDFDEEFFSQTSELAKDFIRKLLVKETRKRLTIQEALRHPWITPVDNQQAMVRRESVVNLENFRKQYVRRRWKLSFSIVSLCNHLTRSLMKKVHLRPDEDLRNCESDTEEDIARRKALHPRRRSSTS
Chain of Phosphatidylinositol 4,5-bisphosphate 3-kinase catalytic subunit alpha isoform (Homo sapiens), P42336 [H1047Y] (P42336 whole entry H1047Y, canonical isoform): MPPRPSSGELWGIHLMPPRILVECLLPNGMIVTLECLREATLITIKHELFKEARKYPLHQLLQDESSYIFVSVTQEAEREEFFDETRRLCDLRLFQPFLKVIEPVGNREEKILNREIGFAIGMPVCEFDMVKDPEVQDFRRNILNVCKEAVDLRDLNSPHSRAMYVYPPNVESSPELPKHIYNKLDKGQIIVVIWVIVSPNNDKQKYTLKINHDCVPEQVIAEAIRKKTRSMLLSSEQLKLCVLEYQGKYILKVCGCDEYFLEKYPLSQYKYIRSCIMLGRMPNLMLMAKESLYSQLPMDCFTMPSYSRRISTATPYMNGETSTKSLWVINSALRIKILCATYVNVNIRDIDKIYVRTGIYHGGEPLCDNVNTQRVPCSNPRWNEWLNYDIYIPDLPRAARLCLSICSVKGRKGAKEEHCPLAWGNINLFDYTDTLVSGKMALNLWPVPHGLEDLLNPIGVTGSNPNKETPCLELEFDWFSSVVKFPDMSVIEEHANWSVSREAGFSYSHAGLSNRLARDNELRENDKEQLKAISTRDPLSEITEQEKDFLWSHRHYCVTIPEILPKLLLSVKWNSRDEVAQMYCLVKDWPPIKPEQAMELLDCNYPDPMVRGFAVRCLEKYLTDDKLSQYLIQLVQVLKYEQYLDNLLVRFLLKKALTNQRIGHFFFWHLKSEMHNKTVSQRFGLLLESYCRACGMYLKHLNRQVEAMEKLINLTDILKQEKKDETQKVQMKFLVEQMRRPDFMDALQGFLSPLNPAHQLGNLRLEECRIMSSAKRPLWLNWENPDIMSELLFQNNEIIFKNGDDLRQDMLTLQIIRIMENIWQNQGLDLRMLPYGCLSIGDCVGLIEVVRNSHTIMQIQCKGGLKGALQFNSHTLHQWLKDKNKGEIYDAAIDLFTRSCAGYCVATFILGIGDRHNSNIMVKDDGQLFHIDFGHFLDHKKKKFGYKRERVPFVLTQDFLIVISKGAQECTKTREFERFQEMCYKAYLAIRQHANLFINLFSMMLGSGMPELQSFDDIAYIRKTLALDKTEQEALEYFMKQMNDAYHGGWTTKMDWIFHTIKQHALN
Chain of Tyrosine-protein kinase Fgr (Homo sapiens) (P09769 2-529 limits assumed): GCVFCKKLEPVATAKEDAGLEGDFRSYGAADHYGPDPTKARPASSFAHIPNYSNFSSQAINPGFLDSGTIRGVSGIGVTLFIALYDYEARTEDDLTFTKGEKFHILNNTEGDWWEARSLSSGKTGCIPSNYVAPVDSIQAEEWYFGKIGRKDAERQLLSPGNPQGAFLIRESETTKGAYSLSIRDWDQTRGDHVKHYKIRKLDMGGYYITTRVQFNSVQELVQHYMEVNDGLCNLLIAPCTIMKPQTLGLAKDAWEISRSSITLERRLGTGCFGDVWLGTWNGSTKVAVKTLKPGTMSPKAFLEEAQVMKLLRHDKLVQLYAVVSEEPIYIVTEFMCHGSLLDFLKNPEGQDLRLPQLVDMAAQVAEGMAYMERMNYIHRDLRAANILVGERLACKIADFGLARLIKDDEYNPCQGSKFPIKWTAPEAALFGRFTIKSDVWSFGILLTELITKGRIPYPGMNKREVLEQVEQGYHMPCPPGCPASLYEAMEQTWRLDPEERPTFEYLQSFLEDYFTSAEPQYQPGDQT
Chain of Sodium-dependent serotonin transporter (Homo sapiens) (P31645 whole entry, looked up): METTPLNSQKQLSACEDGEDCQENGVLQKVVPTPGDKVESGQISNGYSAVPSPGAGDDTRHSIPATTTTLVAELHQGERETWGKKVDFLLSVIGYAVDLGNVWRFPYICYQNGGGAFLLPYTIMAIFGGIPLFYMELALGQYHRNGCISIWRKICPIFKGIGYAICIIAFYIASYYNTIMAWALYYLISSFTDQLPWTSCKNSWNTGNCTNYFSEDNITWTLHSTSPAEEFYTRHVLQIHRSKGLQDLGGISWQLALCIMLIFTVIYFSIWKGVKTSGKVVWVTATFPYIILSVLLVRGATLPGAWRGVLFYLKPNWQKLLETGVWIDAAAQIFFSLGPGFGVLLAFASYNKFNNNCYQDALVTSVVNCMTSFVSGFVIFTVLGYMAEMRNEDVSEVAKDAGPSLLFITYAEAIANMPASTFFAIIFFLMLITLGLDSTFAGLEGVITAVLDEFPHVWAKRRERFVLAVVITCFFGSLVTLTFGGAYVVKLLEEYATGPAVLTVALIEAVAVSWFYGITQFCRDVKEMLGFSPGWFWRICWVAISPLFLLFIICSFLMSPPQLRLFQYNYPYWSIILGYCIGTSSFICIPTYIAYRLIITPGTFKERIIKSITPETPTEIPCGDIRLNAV
Chain of SRSF protein kinase 2 (Homo sapiens) (P78362 whole entry, looked up): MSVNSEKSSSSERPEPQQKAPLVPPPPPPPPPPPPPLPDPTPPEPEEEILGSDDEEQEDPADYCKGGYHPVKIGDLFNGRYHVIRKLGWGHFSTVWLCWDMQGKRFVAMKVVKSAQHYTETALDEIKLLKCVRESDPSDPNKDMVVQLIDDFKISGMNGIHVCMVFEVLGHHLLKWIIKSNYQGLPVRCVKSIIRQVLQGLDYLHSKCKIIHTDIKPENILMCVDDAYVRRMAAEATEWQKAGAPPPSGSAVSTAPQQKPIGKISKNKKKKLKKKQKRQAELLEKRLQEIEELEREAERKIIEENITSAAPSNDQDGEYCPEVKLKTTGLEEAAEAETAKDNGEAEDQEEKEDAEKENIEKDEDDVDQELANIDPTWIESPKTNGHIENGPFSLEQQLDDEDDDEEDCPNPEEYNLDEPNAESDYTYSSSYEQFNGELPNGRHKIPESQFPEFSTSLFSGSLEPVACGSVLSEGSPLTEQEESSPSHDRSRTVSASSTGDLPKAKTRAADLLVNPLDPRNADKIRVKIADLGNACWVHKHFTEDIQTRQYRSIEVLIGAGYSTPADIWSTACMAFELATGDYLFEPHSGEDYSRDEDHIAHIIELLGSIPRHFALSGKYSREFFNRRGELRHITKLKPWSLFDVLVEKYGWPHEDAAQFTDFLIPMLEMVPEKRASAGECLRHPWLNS
Chain of Aurora kinase B (Homo sapiens) (Q96GD4 whole entry): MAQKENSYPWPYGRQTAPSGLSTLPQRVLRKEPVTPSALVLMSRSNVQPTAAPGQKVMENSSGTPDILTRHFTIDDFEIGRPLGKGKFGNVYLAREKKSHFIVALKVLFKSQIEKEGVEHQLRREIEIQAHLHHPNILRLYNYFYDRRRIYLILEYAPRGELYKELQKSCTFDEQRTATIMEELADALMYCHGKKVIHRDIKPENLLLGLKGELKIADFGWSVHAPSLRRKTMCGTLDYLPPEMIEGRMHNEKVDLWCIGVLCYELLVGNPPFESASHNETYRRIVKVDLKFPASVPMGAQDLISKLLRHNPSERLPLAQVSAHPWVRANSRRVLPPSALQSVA

NS(=O)(=O)c1cc(NC(=O)C2(c3ccccc3Cl)CC2)ccc1Oc1cccc(Cl)c1 [BAY-207]
inactive: residual activity [1] 100% | residual activity [2] 90% | residual activity [3] 76% | residual activity [4] 80% | residual activity [5] 54% | residual activity [6] 94% | residual activity [8] 100% | residual activity [9] 100% | residual activity [10] 100% | residual activity [11] 80% | residual activity [12] 98% | residual activity [13] 62% | residual activity [14] 74% | inhibition [15] 3.57% | inhibition [16] 27% | residual activity [17] 90% | residual activity [19] 100% | residual activity [20] 100% | residual activity [21] 89% | residual activity [22] 84% | residual activity [23] 64% | inhibition [24] 8.86% | residual activity [25] 70% | residual activity [26] 76% | residual activity [27] 73% | residual activity [28] 87% | residual activity [29] 100% | residual activity [30] 96% | residual activity [31] 100% | residual activity [32] 100% | residual activity [33] 100% | residual activity [34] 76% | residual activity [35] 85% | residual activity [36] 89% | residual activity [37] 100% | residual activity [38] 86% | residual activity [39] 90% | residual activity [40] 81%
active: residual activity [7] 45% | residual activity [18] 43%

NS(=O)(=O)c1cc(NC(=O)Cc2ccccc2)ccc1Oc1cccc(Cl)c1 [BAY-1797]
inactive: residual activity [1] 72% | residual activity [2] 89% | residual activity [3] 100% | residual activity [4] 100% | residual activity [5] 100% | residual activity [6] 100% | residual activity [7] 99% | residual activity [8] 93% | residual activity [9] 90% | residual activity [10] 100% | residual activity [11] 99% | residual activity [12] 93% | residual activity [13] 100% | residual activity [14] 77% | inhibition [15] 21.6% | inhibition [16] 28.4% | residual activity [17] 100% | residual activity [18] 100% | residual activity [19] 80% | residual activity [20] 73% | residual activity [21] 88% | residual activity [22] 58% | residual activity [23] 87% | inhibition [24] 22.7% | residual activity [25] 78% | residual activity [26] 81% | residual activity [27] 95% | residual activity [28] 92% | residual activity [29] 88% | residual activity [30] 100% | residual activity [31] 100% | residual activity [32] 100% | residual activity [33] 86% | residual activity [34] 64% | residual activity [35] 95% | residual activity [36] 100% | residual activity [37] 71% | residual activity [38] 62% | residual activity [39] 86% | residual activity [40] 69%

Reference: ChEMBL document CHEMBL4507265 (2021)
